“Also recorded” adds a separate entry of the source.
How the values were obtained:
[1] = target: Txk (Homo sapiens, UniProt P42681); experiment: biochemical
[2] = tested on: ID8 ovarian cancer; experiment: ID8 syngeneic orthotropic ovarian cancer model; format: in vivo, mice
Description: FIG. 108 illustrates the effects of vehicle on flux at two timepoints, as a control for comparison with FIG. 109, in the ID8 syngeneic orthotropic ovarian cancer model.

[3] = tested on: CLL; experiment: Clinical study of Formula (XVIII) in CLL; format: in vivo
Description: J. Med. 2013, 369, 32-42.

[4] = In vitro metabolism in hepatocytes with 14C-labeled compound; format: in vitro ADME, mouse, rat, dog, rabbit, monkey, and human
[5] = tested on: human platelet-mediated thrombosis; experiment: In vivo human thrombus formation in the VWF HA1 mice model (laser-induced injury); conditions: pretreated human platelets
Description: Constitutive or aberrant activation of the BCR signaling cascade has been implicated in the propagation and maintenance of a variety of B cell malignancies. […] J. Haematol. […] In fact, both Tec and BTK play an important role in the regulation of phospholipase Cγ2 (PLCγ2) downstream of the collagen receptor glycoprotein VI (GPVI) in human platelets. […] Biotechnol.
Injury to the vessel wall of arterioles ([…] diameter) was performed using a pulsed nitrogen dye laser (440 nm, Photonic Instruments) applied through a 20× water-immersion Olympus objective (LUMPlanFl, 0.5 numerical aperature (NA)) of a Zeiss Axiotech vario microscope. […] The extent of thrombus formation was assessed for 2 minutes after injury and the area (μm^2) of coverage determined (Image IQ, Andor Technology).
The BTK inhibitor-treated human platelets were fluorescently labeled and infused continuously through a catheter inserted into the femoral artery.

[6] = tested on: GPVI platelet aggregation; experiment: GPVI platelet aggregation studies; format: cell-based; conditions: read-out: IC50, GPVI platelet aggregation
[7] = tested on: NK cells; experiment: NK cell degranulation (CD107a externalization, flow cytometry); format: cell-based, human; conditions: 1 μM, HER18 target cells
Description: Lytic granule release was determined as follows. NK cells from healthy donors were enriched and cultured in the presence of target cells, monoclonal antibodies and test articles as described above. After 4 hours, the cultures were harvested and cells were pelleted, washed, and then stained for flow cytometry evaluation. Degranulation was evaluated via by flow cytometery by externalization of CD107a, a protein normally present on the inner leaflet of lytic granules, and gating on NK cells (CD3-CD16^+ lymphocytes). The percentage of CD107a positive NK cells was quantified by comparison with a negative control (isotype control, unstained cells/FMO). Control cultures (NK cells cultured without target cells, or NK, target cell co-cultures in the absence of appropriate monoclonal antibody) were also evaluated; all experiments were performed in triplicate.

[8] = tested on: KrasLA2 NSCLC; experiment: KrasLA2 non-small cell lung cancer (NSCLC) model; format: in vivo
Description: FIG. 161 illustrates the dosing schema used with the KrasLA2 non-small cell lung cancer (NSCLC) model.
FIG. 162 illustrates tumor volume variation from baseline as assessed by microcomputerized tomography (microCT) in the KrasL2 NSCLC model.

[9] = Study of respiratory function; conditions: rats, doses through 300 mg/kg
[10] = tested on: chronic lymphocytic leukemia (CLL); experiment: Clinical study of Formula (XVIII) in relapsed/refractory CLL
[11] = tested on: canine B cell lymphoma; experiment: Veterinary clinical trial in companion dogs with lymphoma; format: in vivo
Description: Enrollment has completed for Arm 1 and is ongoing for Arm 2.
Intra-subject dose escalation was allowed. Six of the 11 dogs that initiated at 2.5 or 5 mg/kg once daily were escalated and completed the study with dosages of 10 mg/kg twice daily. Among all the dose cohorts, 8 dogs had shrinkage of target lesions >20%; the best tumor responses were between 45-49% reduction in the sum of target lesions in two dogs.

[12] = tested on: BCR; experiment: In vivo potency: expression of activation markers CD69 and CD86 after BCR stimulation with IgM; conditions: compared with ibrutinib; mice gavaged, sacrificed 3 h post-dose; flow cytometry; FIG. 137
Description: Mice were gavaged at increasing drug concentration and sacrificed at one time point (3 h post-dose). BCR is stimulated with IgM and the expression of activation markers CD69 and CD86 are monitored by flow cytometry to determine EC50's.

[13] = tested on: orthotopic pancreatic cancer (KPC derived cells); experiment: Orthotopic pancreatic cancer model (KPC cell line implanted in C57BL/6 mice); format: in vivo; conditions: orthotopic PDA model, oral 15 mg/kg
Description: Cell line derived from KrasG12D; Trp53R172H; Pdxl-Cre (KPC) mice were orthotopically implantated into the head of the pancreas after 35 passages. Based on the mice background from where the cell lines were generated, 1×10^6 cells were injected in C57BL/6 mice. Throughout the experiment, animals were provided with food and water ad libitum and subjected to a 12-h dark/light cycle. Animal studies were performed in accordance with the U.S. Public Health Service “Guidelines for the Care and Use of Laboratory Animals” (IACUC). After euthanization, pancreatic tumors were dissected out, weighed and single cell suspensions were prepared for flow cytometry analysis.

[14] = target: BTK (Homo sapiens, UniProt Q06187); experiment: BTK target occupancy in relapsed/refractory CLL patients; conditions: at lower dosage versus ibrutinib, FIG. 144
[15] = tested on: NSCLC (KrasLA2) lung tumors; experiment: Genetic tumor model of NSCLC (KrasLA2); format: in vivo, mice; conditions: 15 mg/kg
Description: The model is designed to have sporadic expression in single cells of G12D mutant Kras off its own promoter triggered by spontaneous intrachromosomal recombination. Johnson, et al. Nature 2001, 410, 1111-16. While the mutant Kras protein is expressed in a few cells in all tissues, tumor development is seen only in the lung at high penetrance.

[16] = tested on: KPC pancreatic cancer; experiment: KPC pancreatic cancer model; format: in vivo

Sequence of Txk (P42681 whole entry): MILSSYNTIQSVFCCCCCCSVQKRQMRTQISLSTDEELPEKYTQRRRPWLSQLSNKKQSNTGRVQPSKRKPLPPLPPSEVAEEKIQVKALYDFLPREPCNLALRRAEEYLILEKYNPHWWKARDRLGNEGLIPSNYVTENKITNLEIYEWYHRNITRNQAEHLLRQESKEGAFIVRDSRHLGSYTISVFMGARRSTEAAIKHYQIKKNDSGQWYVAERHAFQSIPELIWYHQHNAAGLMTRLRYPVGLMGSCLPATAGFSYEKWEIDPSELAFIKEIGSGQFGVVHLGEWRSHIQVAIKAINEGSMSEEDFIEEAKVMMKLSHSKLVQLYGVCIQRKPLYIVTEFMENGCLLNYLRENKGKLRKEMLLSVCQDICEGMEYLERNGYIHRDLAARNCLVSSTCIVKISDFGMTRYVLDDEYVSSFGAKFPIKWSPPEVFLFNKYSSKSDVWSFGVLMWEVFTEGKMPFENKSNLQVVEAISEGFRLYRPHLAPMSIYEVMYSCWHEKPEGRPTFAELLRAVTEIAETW
Sequence of BTK (Q06187 whole entry): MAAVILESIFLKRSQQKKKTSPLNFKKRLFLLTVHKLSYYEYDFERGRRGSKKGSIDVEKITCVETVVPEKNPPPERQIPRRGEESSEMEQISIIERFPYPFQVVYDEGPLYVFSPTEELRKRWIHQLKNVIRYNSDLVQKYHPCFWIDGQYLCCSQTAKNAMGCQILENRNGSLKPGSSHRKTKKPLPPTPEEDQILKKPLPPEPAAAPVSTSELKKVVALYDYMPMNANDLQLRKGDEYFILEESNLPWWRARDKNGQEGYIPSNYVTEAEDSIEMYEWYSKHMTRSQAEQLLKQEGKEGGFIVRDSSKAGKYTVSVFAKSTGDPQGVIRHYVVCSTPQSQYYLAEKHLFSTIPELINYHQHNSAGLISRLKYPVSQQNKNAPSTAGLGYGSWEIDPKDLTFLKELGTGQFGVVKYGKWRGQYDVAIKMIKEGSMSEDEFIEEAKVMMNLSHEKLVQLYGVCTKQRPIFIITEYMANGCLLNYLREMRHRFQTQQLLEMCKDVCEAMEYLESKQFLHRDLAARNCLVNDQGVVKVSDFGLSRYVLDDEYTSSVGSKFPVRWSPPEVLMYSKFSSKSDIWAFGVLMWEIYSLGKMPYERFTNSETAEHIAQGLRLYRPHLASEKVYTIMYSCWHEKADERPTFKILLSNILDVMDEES

## CC#CC(=O)N1CCC[C@H]1c1nc(-c2ccc(C(=O)Nc3ccccn3)cc2)c2c(N)nccn12 [Formula (XVIII), (S)-4-(8-amino-3-(1-(but-2-ynoyl)pyrrolidin-2-yl)imidazo[1,5-a]pyrazin-1-yl)-N-(pyridin-2-yl)benzamide]
[1]
  IC50: 0.291 µM
[2]; FIG. 114
  immunosuppressive tumor associated Tregs: significant reduction
[2]; FIG. 115
  CD8+ T cells: increase
[2]; syngeneic murine model, in comparison to vehicle, FIG. 111
  ID8 ovarian cancer growth: impairs
[2]; tumor-bearing mice, in comparison to vehicle, FIG. 110
  immunosuppressive tumor associated lymphocytes: significant reduction
[2]; tumor-bearing mice, FIG. 112
  total B cells: significant reduction
[2]; tumor-bearing mice, FIG. 113
  B regulatory cells (Bregs): significant reduction
[3]; CLL patients, FIG. 157
  apoptosis: increased
[3]; CLL, compared with ibrutinib, FIG. 138
  sum of the product of greatest diameters (SPD): decreases more rapidly
[3]; CLL, relative to ibrutinib (Byrd et al. 2013), FIG. 138
  absolute lymphocyte count (ALC): much smaller relative increase and much faster decrease
[3]; patients treated, FIG. 158
  CXCL12 levels: decrease
[3]; patients treated, FIG. 159
  CCL2 levels: decrease
[4]; hepatocytes
  Unique human metabolite: No unique human metabolite was identified
[4]; mouse, rat, dog, rabbit, monkey, and human hepatocytes
  Metabolites in hepatocytes: two mono-oxidized metabolites and a glutathione conjugate
[5]
  Effect on human platelet-mediated thrombus formation: does not interfere with thrombus formation; also recorded: no significant effect on human platelet-mediated thrombus formation
[6]
  IC50: 1.15 µM
[7]
  Inhibition of trastuzumab-stimulated NK cell degranulation: no inhibitory effect
[8]; FIG. 163
  immunosuppressive tumor associated TAMs: significant reduction
[8]; FIG. 164
  immunosuppressive tumor associated MDSCs: significant reduction
[8]; FIG. 165
  immunosuppressive tumor associated Tregs: significant reduction
[9]
  Respiratory function: no treatment-related adverse effects
[10]; 100 mg QD (N = 8)
  PD (progressive disease): 0 (0) n (%)
[10]; 175 mg QD (N = 8)
  PD (progressive disease): 0 (0) n (%)
[10]; 250 mg QD (N = 7)
  PD (progressive disease): 0 (0) n (%)
[10]; All Cohorts (N = 31)
  PD (progressive disease): 0 (0) n (%)
  PR (partial response): 22 (71) n (%)
  PR + L (partial response with lymphocytosis): 7 (23) n (%)
[10]; CLL patients, present study
  Time of treatment at which the median % change in SPD achieved the same status: 7 months
[10]; CLL patients, Log-Rank p-value 0.0206
  PFS (Kaplan-Meier) in comparison to ibrutinib: An improvement in survival and a reduction in risk
[10]; Grade 1/2, All (N = 44)
  Treatment-related adverse event: Headache: 7 (16) n (%)
[10]; Grade 1, All (N = 44)
  Treatment-related adverse event: Diarrhea: 4 (9) n (%)
[10]; human, in vivo
  Dose-limiting toxicities (DLTs): No DLTs were observed
  Grade of adverse events: only grade 1 AEs were observed
  Lymphocytosis: A lack of lymphocytosis was observed
  Treatment-related adverse event: Increased tendency to bruise: 6 (14) n (%)
  Treatment-related adverse event: Petechiae: 3 (7) n (%)
  Treatment-related serious adverse events (SAEs): No treatment-related serious adverse events (SAEs) were observed
[10]; to date
  Progression in patients with the 17p deletion: no 17p patients have progressed
[11]
  CR by investigator evaluation: 0/21
[12]
  potency at inhibiting expression of activation markers CD69 and CD86: more potent
[13]
  Immature myeloid infiltrate (MDSCs): decreased immature myeloid infiltrate
  Immunosuppressive Tregs: reduced the number of immunosuppressive Tregs
  Tumor associated macrophages: reduced the number of tumor associated macrophages
  Tumor burden: significantly reduced tumor burden
[14]
  BTK target occupancy: improved
[15]
  Number of tumors: fewer overall tumors
  Tumor volumes: significant decrease in tumor volumes versus vehicle
[16]; FIG. 128
  immunosuppressive TAMs (CD11b+Ly6ClowF4/80+Csf1r+) in tumor tissues: significantly reduced
[16]; FIG. 129
  immunosuppressive MDSCs (Gr1+Ly6CHi) in tumor tissues: significantly reduced
[16]; FIG. 130
  immunosuppressive Tregs (CD4+CD25+FoxP3+) in tumor tissues: significantly reduced

— patent publication US20170224819A1, “Therapeutic Combinations of a BTK Inhibitor, a PI3K Inhibitor, a JAK-2 Inhibitor, and/or a CDK 4/6 Inhibitor” (Acerta Pharma B.V., priority 2014, published 2017)
